Values quoted from earlier work, collected in patent US20220331213A1, “ANTIMICROBIAL COMPOSITIONS COMPRISING A BENZOIC ACID ANALOG AND ACID PH BUFFERS” (eHealth Nexus LLC, priority 2021, published 2022).

What was measured:
[1] = for pK2 / pK1: aqueous; for pK2: second dissociation of di-/polycarboxylic acid; for pK1: first dissociation of di-/polycarboxylic acid; for pKa (acid dissociation constant): aqueous pKa
[2] = test system: rhinovirus; details: 2% salicylic acid on skin

For O=C(O)CCCCC(=O)O [adipic acid], the pK2 [1] is given as “about 5.4”.

For O=C(O)CC(O)(CC(=O)O)C(=O)O [citric acid], the pK1 [1] is listed as “about 2.9”.

For O=C(O)[C@H](O)[C@@H](O)[C@H](O)[C@H](O)CO [gluconic acid], the “pKa (acid dissociation constant)” value [1] is given as 3.85.

For O=C(O)CCCC(=O)O [glutaric acid], the “pKa (acid dissociation constant)” value [1] is given as 3.76, the pK1 [1] is given as “about 4.3” and the pK2 [1] is given as “about 5.4”.

In the case of O=C(O)CO [glycolic acid], the “pKa (acid dissociation constant)” value [1] is listed as about 3.8.

For O=C(O)c1cccnc1 [nicotinic acid], the “pKa (acid dissociation constant)” value [1] is given as 4.82.

For O=C(O)c1ccccc1O [salicylic acid], the “residual anti-rhinovirus activity on the skin” value [2] is given as “diminish over 3 hours”.
